Assay results as given in patent US8729030B2 (Affymax, Inc., priority 2003, dated 2014).
Bridges are numbered along the chain shown (N, C = ends). Where no end group is shown, it is not given here. [ ]: non-standard residue; d: D form. 1Nal = N[C@@H](Cc1cccc2ccccc12)C(=O)O; Sar = CNCC(=O)O

Tests used:
[1] = biological target: chimeric receptor comprising the extra-cellular portion of the human EPO receptor to the intra-cellular portion of the human GCSF receptor; experiment: Reporter assay (Baf3/EpoR/GCSFR fos/lux luciferase); type: cell-based; settings: Table 6; Baf3/EpoR/GCSFR fos/lux cells, 4 h
Excerpt: This assay is based upon a on a murine pre-B-cell line derived reporter cell, Baf3/EpoR/GCSFR fos/lux. This reporter cell line expresses a chimeric receptor comprising the extra-cellular portion of the human EPO receptor to the intra-cellular portion of the human GCSF receptor. This cell line is further transfected with a fos promoter-driven luciferase reporter gene construct. Activation of this chimeric receptor through addition of erythropoietic agent results in the expression of the luciferase reporter gene, and therefore the production of light upon addition of the luciferase substrate luciferin. Thus, the level of EPO-R activation in such cells may be quantitated via measurement of luciferase activity.
The Baf3/EpoR/GCSFR fos/lux cells are cultured in DMEM/F12 medium (Gibco) supplemented with 10% fetal bovine serum (FBS; Hyclone), 10% WEHI-3 supernatant (the supernatant from a culture of WEHI-3 cells, ATCC #TIB-68), and penicillin/streptomycin. […] Following a 5-minute incubation, light emission is measured on a Packard Topcount Luminometer (Packard Instrument Co., Downers Grove, Ill.). Light counts are plotted relative to test peptide concentration and analysed using Graph Pad software. The concentration of test peptide that results in a half-maximal emission of light is recorded as the EC50 [See Table 2: Reporter EC50]. […]

[2] = system: human, bone marrow derived CD34+ cells; experiment: C/BFU-e assay (erythroid colony formation); type: cell-based; settings: Table 6; colonies 90% of maximum relative to EPO control, 14 days
Excerpt: EPO-R signaling stimulates the differentiation of bone marrow stem cells into proliferating red blood cell presursors. This assay measures the ability of test peptides to stimulate the proliferation and differentiation of red blood cell precursors from primary human bone marrow pluripotent stem cells.
For this assay, serial dilutions of test peptide are made in IMDM medium (Gibco) supplemented with 10% FBS (Hyclone). […] The methylcellulose and peptide mixture is then vortexed thoroughly. Aliquots (100,000 cells/mL) of human, bone marrow derived CD34+ cells (Poietics/Cambrex) are thawed. The thawed cells are gently added to 0.1 mL of 1 mg/ml DNAse (Stem Cells) in a 50 mL tube. Next, 40-50 mL IMDM medium is added gently to cells: the medium is added drop by drop along the side of the 50 mL tube for the first 10 mL, and then the remaining volume of medium is slowly dispensed along the side of the tube. The cells are then spun at 900 rpm for 20 min, and the media removed carefully by gentle aspiration. The cells are resuspended in 1 ml of IMDM medium and the cell density per mL is counted on hemacytometer slide (10 μL aliquot of cell suspension on slide, and cell density is the average count×10,000 cells/ml). The cells are then diluted in IMDM medium to a cell density of 15,000 cells/mL. A 100 μL of diluted cells is then added to each 1.5 mL methyl cellulose plus peptide sample (final cell concentration in assay media is 1000 cells/mL), and the mixture is vortexed. Allow the bubbles in the mixture to disappear, and then aspirate 1 mL using blunt-end needle. Add 0.25 mL aspirated mixture from each sample into each of 4 wells of a 24-well plate (Falcon brand). Incubate the plated mixtures at 37° C. under 5% CO2 in a humid incubator for 14 days. Score for the presence of erythroid colonies using a phase microscope (5×-10× objective, final magnification of 100×).
EPO-R signaling stimulates the differentiation of bone marrow stem cells into proliferating red blood cell precursors. […]

[3] = biological target: T1, Recombinant Human EPO R/Fc Chimera (Homo sapiens, UniProt P19235); experiment: Radioligand competitive binding assay (125I-EPO); settings: Table 6; competition with 125I-EPO, 4° C. overnight
T1 construct: recombinant EPOr extracellular domain fused to the Fc portion of human IgG1; purchased R&D Systems (Minneapolis, MN, US) 963-ER
T1 sequence (P19235 25-250 limits assumed): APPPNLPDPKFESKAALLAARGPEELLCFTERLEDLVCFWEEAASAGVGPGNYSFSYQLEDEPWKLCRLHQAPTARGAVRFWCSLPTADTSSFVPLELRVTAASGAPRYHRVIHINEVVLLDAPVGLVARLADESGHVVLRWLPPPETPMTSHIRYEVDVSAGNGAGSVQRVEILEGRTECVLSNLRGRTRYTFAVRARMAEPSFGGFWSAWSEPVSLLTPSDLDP
Procedure: An alternative radioligand competition binding assay can also be used to measure IC50 values of peptides in this invention. This assay measures binding of ^125I-EPO to EPOr. The assay is preferably performed according to the following exemplary protocol:
One 50 μg vial of lyophilized recombinant EPOr extracellular domain fused to the Fc portion of human IgG1 is reconstituted in 1 mL of assay buffer. […] Tubes are capped and mixed gently at 4° C. overnight on a LabQuake rotating shaker.
The next day, 50 μL of a 50% slurry of Protein-G Sepharose is added to each tube. Tubes are then incubated for 2 hours at 4° C., mixing gently. The tubes are then centrifuged for 15 min at 4000 RPM (3297×G) to pellet the protein-G sepharose. The supernatants are carefully removed and discarded. After washing 3 times with 1 mL of 4° C. assay buffer, the pellets are counted in a Wallac Wizard gamma counter. Results are then analyzed and the dilution required to reach 50% of the maximum binding value is calculated.
The next day, bound ^125I-EPO is quantitated as described above. The results are analyzed and the IC50 value calculated using Graphpad Prism version 4.0, from GraphPad Software, Inc. (San Diego, Calif.). The assay is repeated two or more times for each peptide tested, for a total of 3 or more replicate IC50 determinations. See Table 6 for IC50 values of Peptide I.

- EC50 [1]: 0.195 nM
- EC90 [2]: 3 nM
- IC50 [3]: 0.111 nM
Substance: peptide dimer of monomers (AcG)GLYACHMGPIT(1-nal)VCQPLR(MeG)K (SEQ ID NO: 2) (Ac-GGLYACHMGPIT[1Nal]VCQPLR[Sar]K; disulfide 6-15 (inferred); not fully specified (residue 1); printed as (AcG)GLYACHMGPIT(1-nal)VCQPLR(MeG)K; also: homodimer, dimer linkage not given here) [Peptide I]
